Results from patent EP4745137A1 (Gluetacs Therapeutics (Shanghai) Co., Ltd., priority 2023, dated 2025).

Assays:
Format in all cases: cell-based
Conditions in all cases: 24 hours of compound treatment
WEE1 = target: T1, WEE1 (Homo sapiens, UniProt P30291+Q96SW2); assay: Western-blot assay of substrate protein degradation in hPBMCs, WEE1
T1 construct: endogenous in cells; host or cells: hPBMCs (Milecell Biotechnologies)

IKZF2 = target: T2, IKZF2 (Homo sapiens, UniProt Q96SW2+Q9UKS7); assay: Western-blot assay of substrate protein degradation in hPBMCs, IKZF2
T2 construct: endogenous in cells; host or cells: hPBMCs (Milecell Biotechnologies)
T2 sequence (Q9UKS7 whole entry): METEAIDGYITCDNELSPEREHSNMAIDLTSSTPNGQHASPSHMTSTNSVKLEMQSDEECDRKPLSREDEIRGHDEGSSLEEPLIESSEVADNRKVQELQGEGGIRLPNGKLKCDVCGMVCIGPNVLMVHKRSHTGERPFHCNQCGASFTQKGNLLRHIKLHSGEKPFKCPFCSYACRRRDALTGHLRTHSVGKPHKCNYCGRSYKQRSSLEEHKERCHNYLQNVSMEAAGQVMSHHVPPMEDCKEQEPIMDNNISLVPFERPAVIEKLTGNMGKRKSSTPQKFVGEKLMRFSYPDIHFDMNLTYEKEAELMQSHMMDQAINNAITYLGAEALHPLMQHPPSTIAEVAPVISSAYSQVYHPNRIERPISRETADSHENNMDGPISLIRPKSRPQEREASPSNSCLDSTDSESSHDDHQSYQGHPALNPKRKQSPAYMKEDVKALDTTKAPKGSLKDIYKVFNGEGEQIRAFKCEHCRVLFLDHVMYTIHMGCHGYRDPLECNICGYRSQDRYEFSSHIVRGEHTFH
T2 sequence (Q96SW2 whole entry): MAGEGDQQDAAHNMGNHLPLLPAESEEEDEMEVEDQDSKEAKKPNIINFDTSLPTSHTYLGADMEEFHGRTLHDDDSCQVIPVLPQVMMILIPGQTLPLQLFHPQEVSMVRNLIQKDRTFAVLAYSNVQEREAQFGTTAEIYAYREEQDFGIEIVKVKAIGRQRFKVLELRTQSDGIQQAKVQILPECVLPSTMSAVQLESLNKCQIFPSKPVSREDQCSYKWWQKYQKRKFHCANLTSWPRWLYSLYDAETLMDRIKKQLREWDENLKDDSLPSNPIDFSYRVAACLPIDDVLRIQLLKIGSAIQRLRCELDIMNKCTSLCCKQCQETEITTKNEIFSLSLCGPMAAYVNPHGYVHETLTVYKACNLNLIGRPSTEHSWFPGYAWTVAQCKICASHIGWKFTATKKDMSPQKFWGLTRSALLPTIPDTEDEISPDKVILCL
T2 sequence (Q16531 whole entry partner): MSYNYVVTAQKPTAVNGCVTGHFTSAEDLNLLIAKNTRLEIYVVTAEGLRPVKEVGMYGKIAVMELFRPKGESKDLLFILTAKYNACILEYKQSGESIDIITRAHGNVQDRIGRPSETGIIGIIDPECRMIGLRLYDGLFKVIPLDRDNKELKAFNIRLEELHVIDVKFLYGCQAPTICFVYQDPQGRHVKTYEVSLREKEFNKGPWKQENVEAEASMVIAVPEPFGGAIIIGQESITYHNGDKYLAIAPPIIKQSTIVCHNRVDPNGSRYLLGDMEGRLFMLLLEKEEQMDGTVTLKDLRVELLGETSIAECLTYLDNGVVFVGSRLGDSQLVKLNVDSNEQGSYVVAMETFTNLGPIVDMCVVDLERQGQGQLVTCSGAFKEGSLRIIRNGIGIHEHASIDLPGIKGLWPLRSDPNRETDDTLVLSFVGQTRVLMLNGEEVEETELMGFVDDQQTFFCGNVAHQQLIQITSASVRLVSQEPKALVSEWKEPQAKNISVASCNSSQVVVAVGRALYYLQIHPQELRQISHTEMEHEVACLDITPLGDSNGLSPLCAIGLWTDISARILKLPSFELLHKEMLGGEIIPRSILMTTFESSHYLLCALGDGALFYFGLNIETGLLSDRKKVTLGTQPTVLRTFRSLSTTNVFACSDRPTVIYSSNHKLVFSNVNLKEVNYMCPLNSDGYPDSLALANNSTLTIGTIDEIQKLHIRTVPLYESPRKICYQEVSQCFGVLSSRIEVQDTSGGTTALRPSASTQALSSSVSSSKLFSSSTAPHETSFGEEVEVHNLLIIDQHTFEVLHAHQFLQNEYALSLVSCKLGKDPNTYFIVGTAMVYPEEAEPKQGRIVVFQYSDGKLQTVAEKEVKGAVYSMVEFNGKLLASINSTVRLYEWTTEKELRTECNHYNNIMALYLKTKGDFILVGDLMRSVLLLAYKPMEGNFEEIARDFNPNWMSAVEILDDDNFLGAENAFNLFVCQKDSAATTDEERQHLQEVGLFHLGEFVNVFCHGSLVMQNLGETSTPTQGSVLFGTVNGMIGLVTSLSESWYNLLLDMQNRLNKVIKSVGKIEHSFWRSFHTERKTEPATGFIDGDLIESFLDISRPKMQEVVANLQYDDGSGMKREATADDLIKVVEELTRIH

GSPT1 = target: T3, GSPT1 (Homo sapiens, UniProt P15170+Q96SW2); assay: Western-blot assay of substrate protein degradation in hPBMCs, GSPT1
T3 construct: endogenous in cells; host or cells: hPBMCs (Milecell Biotechnologies)

IKZF1 = target: T4, IKZF1 (Homo sapiens, UniProt Q13422+Q96SW2); assay: Western-blot assay of substrate protein degradation in hPBMCs, IKZF1
T4 construct: endogenous in cells; host or cells: hPBMCs (Milecell Biotechnologies)
T4 sequence (Q13422 whole entry): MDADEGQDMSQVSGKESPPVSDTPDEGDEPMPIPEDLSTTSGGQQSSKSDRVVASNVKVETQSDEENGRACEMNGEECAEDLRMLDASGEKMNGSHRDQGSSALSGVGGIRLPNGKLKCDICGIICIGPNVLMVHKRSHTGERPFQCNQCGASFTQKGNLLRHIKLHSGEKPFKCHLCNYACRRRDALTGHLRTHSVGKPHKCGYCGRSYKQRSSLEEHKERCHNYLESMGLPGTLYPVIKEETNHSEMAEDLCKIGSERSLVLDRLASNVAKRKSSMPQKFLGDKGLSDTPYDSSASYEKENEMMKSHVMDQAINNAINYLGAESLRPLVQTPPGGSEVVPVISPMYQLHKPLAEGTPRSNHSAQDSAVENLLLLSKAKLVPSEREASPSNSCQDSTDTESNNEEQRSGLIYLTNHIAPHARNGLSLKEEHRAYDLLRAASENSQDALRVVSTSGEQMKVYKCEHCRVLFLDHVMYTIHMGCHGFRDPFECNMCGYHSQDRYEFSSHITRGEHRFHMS
T4 sequence (Q96SW2 whole entry): as the sequence (Q96SW2 whole entry) above
T4 sequence (Q16531 whole entry partner): as the sequence (Q16531 whole entry partner) above

CK1α = target: T5, CK1α (Homo sapiens, UniProt P48729+Q96SW2); assay: Western-blot assay of substrate protein degradation in hPBMCs, CK1α
T5 construct: endogenous in cells; host or cells: hPBMCs (Milecell Biotechnologies)
T5 sequence (P48729 whole entry): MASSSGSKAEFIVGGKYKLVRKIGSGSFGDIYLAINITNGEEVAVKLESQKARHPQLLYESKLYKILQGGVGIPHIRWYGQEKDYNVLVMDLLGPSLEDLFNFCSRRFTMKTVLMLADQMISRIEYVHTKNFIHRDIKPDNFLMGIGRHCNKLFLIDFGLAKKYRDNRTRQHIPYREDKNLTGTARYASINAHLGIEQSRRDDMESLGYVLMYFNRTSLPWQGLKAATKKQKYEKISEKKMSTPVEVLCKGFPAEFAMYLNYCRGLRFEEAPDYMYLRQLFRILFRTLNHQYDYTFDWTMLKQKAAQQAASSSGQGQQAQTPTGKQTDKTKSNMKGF
T5 sequence (Q96SW2 whole entry): as the sequence (Q96SW2 whole entry) above
T5 sequence (Q16531 whole entry partner): as the sequence (Q16531 whole entry partner) above

IKZF3 = target: T6, IKZF3 (Homo sapiens, UniProt Q96SW2+Q9UKT9); assay: Western-blot assay of substrate protein degradation in hPBMCs, IKZF3
T6 construct: endogenous in cells; host or cells: hPBMCs (Milecell Biotechnologies)
T6 sequence (Q9UKT9 whole entry): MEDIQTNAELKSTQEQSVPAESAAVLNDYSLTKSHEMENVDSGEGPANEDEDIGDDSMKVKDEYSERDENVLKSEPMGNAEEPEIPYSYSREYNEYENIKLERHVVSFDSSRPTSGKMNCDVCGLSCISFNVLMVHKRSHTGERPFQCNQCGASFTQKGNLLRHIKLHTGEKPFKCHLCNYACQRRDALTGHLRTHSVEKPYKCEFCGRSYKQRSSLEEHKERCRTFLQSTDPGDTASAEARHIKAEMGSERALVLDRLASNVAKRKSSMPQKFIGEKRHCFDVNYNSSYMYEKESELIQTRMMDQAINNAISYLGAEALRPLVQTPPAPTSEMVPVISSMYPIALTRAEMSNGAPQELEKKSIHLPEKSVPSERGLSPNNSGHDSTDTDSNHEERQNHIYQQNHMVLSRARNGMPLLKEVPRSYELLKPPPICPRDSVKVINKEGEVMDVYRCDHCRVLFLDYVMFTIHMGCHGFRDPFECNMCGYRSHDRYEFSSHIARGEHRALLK
T6 sequence (Q96SW2 whole entry): as the sequence (Q96SW2 whole entry) above
T6 sequence (Q16531 whole entry partner): as the sequence (Q16531 whole entry partner) above

[1] = 50 nM and 500 nM tested (concentration behind the class not stated)
[2] = compounds tested at 50 nM and 500 nM (concentration of the table not stated)

T1 sequence (P30291 whole entry): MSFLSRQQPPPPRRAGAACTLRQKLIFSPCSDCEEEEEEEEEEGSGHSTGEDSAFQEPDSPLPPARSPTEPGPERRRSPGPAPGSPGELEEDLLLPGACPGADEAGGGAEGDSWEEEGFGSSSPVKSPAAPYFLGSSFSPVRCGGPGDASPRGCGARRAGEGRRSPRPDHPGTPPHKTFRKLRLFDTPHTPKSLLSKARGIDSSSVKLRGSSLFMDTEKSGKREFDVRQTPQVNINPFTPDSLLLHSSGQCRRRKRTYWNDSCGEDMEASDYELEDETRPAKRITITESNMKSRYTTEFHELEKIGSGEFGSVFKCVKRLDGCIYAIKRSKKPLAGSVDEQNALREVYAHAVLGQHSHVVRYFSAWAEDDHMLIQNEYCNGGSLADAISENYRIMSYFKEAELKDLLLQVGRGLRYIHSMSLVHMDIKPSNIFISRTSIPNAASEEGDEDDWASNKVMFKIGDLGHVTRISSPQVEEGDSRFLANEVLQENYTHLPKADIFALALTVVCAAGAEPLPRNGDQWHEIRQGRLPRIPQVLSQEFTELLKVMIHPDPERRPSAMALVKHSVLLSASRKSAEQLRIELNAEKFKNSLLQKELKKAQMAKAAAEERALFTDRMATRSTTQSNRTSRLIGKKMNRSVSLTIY
T1 sequence (Q96SW2 whole entry): as the sequence (Q96SW2 whole entry) above
T1 sequence (Q16531 whole entry partner): as the sequence (Q16531 whole entry partner) above

Row | SMILES | Weel substrate protein remaining % (WEE1; [1]) | IKZF2 substrate protein remaining % (IKZF2; [1]) | GSPT1 substrate protein remaining % (GSPT1; [1]) | IKZF 1 substrate protein remaining % (IKZF1; [1]) | CK1a substrate protein remaining % (CK1α; [1]) | IKZF3 substrate protein remaining % (IKZF3; [1]) | Weel substrate protein remaining % (WEE1; [2]) | IKZF2 substrate protein remaining % (IKZF2; [2]) | GSPT1 substrate protein remaining % (GSPT1; [2]) | IKZF 1 substrate protein remaining % (IKZF1; [2]) | CK1a substrate protein remaining % (CK1α; [2]) | IKZF3 substrate protein remaining % (IKZF3; [2])
1 | O=C1CCC(N2C(=O)c3ccc(CN4CCC(c5ncnc6sc(-c7ccccc7)cc56)CC4)cc3C2=O)C(=O)N1 (stereo not drawn) [GT-06594, 2-(2,6-dioxopiperidin-3-yl)-5-((4-(6-phenylthieno[2,3-d]pyrimidin-4-yl)piperidin-1-yl)methyl)isoindoline-1,3-dione] | A (0% ≤ substrate protein remaining % ≤ 80%) | A (0% ≤ substrate protein remaining % ≤ 80%) | A (0% ≤ substrate protein remaining % ≤ 80%) | A (0% ≤ substrate protein remaining % ≤ 80%) | B (80%< substrate protein remaining %≤ 100%) | A (0% ≤ substrate protein remaining % ≤ 80%) | – | – | – | – | – | –
2 | Cc1ccsc1C1CCN(Cc2ccc3c(c2)C(=O)N(C2CCC(=O)NC2=O)C3=O)CC1 (stereo not drawn) [GT-06280, 2-(2,6-dioxopiperidin-3-yl)-5-((4-(3-methylthiophen-2-yl)piperidin-1-yl)methyl)isoindoline-1,3-dione] | B (80%< substrate protein remaining %≤ 100%) | B (80%< substrate protein remaining %≤ 100%) | A (0% ≤ substrate protein remaining % ≤ 80%) | B (80%< substrate protein remaining %≤ 100%) | B (80%< substrate protein remaining %≤ 100%) | B (80%< substrate protein remaining %≤ 100%) | – | – | – | – | – | –
3 | O=C1CCC(N2C(=O)c3ccc(CN4CCC(c5ccsc5)CC4)cc3C2=O)C(=O)N1 (stereo not drawn) [GT-06281, 2-(2,6-dioxopiperidin-3-yl)-5-((4-(thiophen-3-yl)piperidin-1-yl)methyl)isoindoline-1,3-dione] | B (80%< substrate protein remaining %≤ 100%) | B (80%< substrate protein remaining %≤ 100%) | A (0% ≤ substrate protein remaining % ≤ 80%) | B (80%< substrate protein remaining %≤ 100%) | B (80%< substrate protein remaining %≤ 100%) | B (80%< substrate protein remaining %≤ 100%) | – | – | – | – | – | –
4 | O=C1CCC(N2C(=O)c3ccc(CN4CCC(N5CCCc6cc(F)ccc65)CC4)cc3C2=O)C(=O)N1 (stereo not drawn) [GT-06234, 2-(2,6-dioxopiperidin-3-yl)-5-((4-(6-fluoro-3,4-dihydroquinolin-1(2H)-yl)piperidin-1-yl)methyl)isoindoline-1,3-dione] | – | – | – | – | – | – | B (80%< substrate protein remaining %≤ 100%) | B (80%< substrate protein remaining %≤ 100%) | A (0% ≤ substrate protein remaining % ≤ 80%) | B (80%< substrate protein remaining %≤ 100%) | B (80%< substrate protein remaining %≤ 100%) | B (80%< substrate protein remaining %≤ 100%)
5 | O=C1CCC(N2C(=O)c3ccc(CN4CC=C(c5cccs5)CC4)cc3C2=O)C(=O)N1 (stereo not drawn) [GT-06219, 2-(2,6-dioxopiperidin-3-yl)-5-((4-(thiophen-2-yl)-3,6-dihydropyridin-1(2H)-yl)methyl)isoindoline-1,3-dione] | A (0% ≤ substrate protein remaining % ≤ 80%) | B (80%< substrate protein remaining %≤ 100%) | A (0% ≤ substrate protein remaining % ≤ 80%) | B (80%< substrate protein remaining %≤ 100%) | A (0% ≤ substrate protein remaining % ≤ 80%) | A (0% ≤ substrate protein remaining % ≤ 80%) | – | – | – | – | – | –
6 | Cc1cscc1N1CCN(Cc2ccc3c(c2)C(=O)N(C2CCC(=O)NC2=O)C3=O)CC1 (stereo not drawn) [GT-06260, 2-(2,6-dioxopiperidin-3-yl)-5-((4-(4-methylthiophen-3-yl)piperazin-1-yl)methyl)isoindoline-1,3-dione] | B (80%< substrate protein remaining %≤ 100%) | B (80%< substrate protein remaining %≤ 100%) | A (0% ≤ substrate protein remaining % ≤ 80%) | B (80%< substrate protein remaining %≤ 100%) | B (80%< substrate protein remaining %≤ 100%) | B (80%< substrate protein remaining %≤ 100%) | – | – | – | – | – | –
7 | Cc1sc2ncnc(N3CCN(Cc4ccc5c(c4)C(=O)N(C4CCC(=O)NC4=O)C5=O)CC3)c2c1C (stereo not drawn) [GT-06307, 5-((4-(5,6-dimethylthieno[2,3-d]pyrimidin-4-yl)piperazin-1-yl)methyl)-2-(2,6-dioxopiperidin-3-yl)isoindoline-1,3-dione] | B (80%< substrate protein remaining %≤ 100%) | A (0% ≤ substrate protein remaining % ≤ 80%) | A (0% ≤ substrate protein remaining % ≤ 80%) | A (0% ≤ substrate protein remaining % ≤ 80%) | A (0% ≤ substrate protein remaining % ≤ 80%) | B (80%< substrate protein remaining %≤ 100%) | – | – | – | – | – | –
8 | O=C1CCC(N2C(=O)c3ccc(CN4CCN(c5cccc(C(F)(F)F)n5)CC4)cc3C2=O)C(=O)N1 (stereo not drawn) [GT-06530, 2-(2,6-dioxopiperidin-3-yl)-5-((4-(6-(trifluoromethyl)pyridin-2-yl)piperazin-1-yl)methyl)isoindoline-1,3-dione] | B (80%< substrate protein remaining %≤ 100%) | B (80%< substrate protein remaining %≤ 100%) | A (0% ≤ substrate protein remaining % ≤ 80%) | B (80%< substrate protein remaining %≤ 100%) | B (80%< substrate protein remaining %≤ 100%) | B (80%< substrate protein remaining %≤ 100%) | – | – | – | – | – | –
9 | O=C1CCC(N2C(=O)c3ccc(CN4CC=C(c5ccsc5)CC4)cc3C2=O)C(=O)N1 (stereo not drawn) [GT-06261, 2-(2,6-dioxopiperidin-3-yl)-5-((4-(thiophen-3-yl)-3,6-dihydropyridin-1(2H)-yl)methyl)isoindoline-1,3-dione] | A (0% ≤ substrate protein remaining % ≤ 80%) | A (0% ≤ substrate protein remaining % ≤ 80%) | A (0% ≤ substrate protein remaining % ≤ 80%) | A (0% ≤ substrate protein remaining % ≤ 80%) | A (0% ≤ substrate protein remaining % ≤ 80%) | A (0% ≤ substrate protein remaining % ≤ 80%) | – | – | – | – | – | –
10 | Cc1nc(C2CCN(Cc3ccc4c(c3)C(=O)N(C3CCC(=O)NC3=O)C4=O)CC2)c2ccsc2n1 (stereo not drawn) [GT-06647, 2-(2,6-dioxopiperidin-3-yl)-5-((4-(2-methylthieno[2,3-d]pyrimidin-4-yl)piperidin-1-yl)methyl)isoindoline-1,3-dione] | A (0% ≤ substrate protein remaining % ≤ 80%) | A (0% ≤ substrate protein remaining % ≤ 80%) | A (0% ≤ substrate protein remaining % ≤ 80%) | B (80%< substrate protein remaining %≤ 100%) | A (0% ≤ substrate protein remaining % ≤ 80%) | B (80%< substrate protein remaining %≤ 100%) | – | – | – | – | – | –
11 | O=C1CCC(N2C(=O)c3ccc(CN4CCN(c5nccc(I)c5F)CC4)cc3C2=O)C(=O)N1 (stereo not drawn) [GT-06533, 2-(2,6-dioxopiperidin-3-yl)-5-((4-(3-fluoro-4-iodopyridin-2-yl)piperazin-1-yl)methyl)isoindoline-1,3-dione] | B (80%< substrate protein remaining %≤ 100%) | B (80%< substrate protein remaining %≤ 100%) | A (0% ≤ substrate protein remaining % ≤ 80%) | B (80%< substrate protein remaining %≤ 100%) | B (80%< substrate protein remaining %≤ 100%) | B (80%< substrate protein remaining %≤ 100%) | – | – | – | – | – | –
12 | O=C1CCC(N2C(=O)c3ccc(CN4CCN(c5c(Cl)cncc5Br)CC4)cc3C2=O)C(=O)N1 (stereo not drawn) [GT-06599, 5-((4-(3-bromo-5-chloropyridin-4-yl)piperazin-1-yl)methyl)-2-(2,6-dioxopiperidin-3-yl)isoindoline-1,3-dione] | B (80%< substrate protein remaining %≤ 100%) | B (80%< substrate protein remaining %≤ 100%) | A (0% ≤ substrate protein remaining % ≤ 80%) | B (80%< substrate protein remaining %≤ 100%) | B (80%< substrate protein remaining %≤ 100%) | B (80%< substrate protein remaining %≤ 100%) | – | – | – | – | – | –
